Consider 20 compounds from ChEMBL document CHEMBL1140402, “SAR, species specificity, and cellular activity of cyclopentene dicarboxylic acid amides as DHODH inhibitors” (Bioorg Med Chem Lett, 2005).

SMILES strings stand for the structures.

The target in assay [1] is Dihydroorotate dehydrogenase (quinone), mitochondrial (Homo sapiens, UniProt Q02127). Briefly: Inhibition of N-terminally truncated recombinant human dihydroorotate dehydrogenase using in vitro enzyme assay.
The nature of assay [2]: Inhibitory activity (proliferation) against human peripheral blood mononuclear cells stimulated with Phytohemagglutininin-L. Format: functional.
Assay [3] addresses Dihydroorotate dehydrogenase (quinone), mitochondrial (Rattus norvegicus, UniProt Q63707). Briefly: Inhibitory activity against rat dihydroorotate dehydrogenase.
In assay [4] the target is Dihydroorotate dehydrogenase (quinone), mitochondrial (Mus musculus, UniProt O35435). Briefly: Inhibitory activity against mouse dihydroorotate dehydrogenase.
Chain of Dihydroorotate dehydrogenase (quinone), mitochondrial (Mus musculus, UniProt O35435) (O35435 whole entry): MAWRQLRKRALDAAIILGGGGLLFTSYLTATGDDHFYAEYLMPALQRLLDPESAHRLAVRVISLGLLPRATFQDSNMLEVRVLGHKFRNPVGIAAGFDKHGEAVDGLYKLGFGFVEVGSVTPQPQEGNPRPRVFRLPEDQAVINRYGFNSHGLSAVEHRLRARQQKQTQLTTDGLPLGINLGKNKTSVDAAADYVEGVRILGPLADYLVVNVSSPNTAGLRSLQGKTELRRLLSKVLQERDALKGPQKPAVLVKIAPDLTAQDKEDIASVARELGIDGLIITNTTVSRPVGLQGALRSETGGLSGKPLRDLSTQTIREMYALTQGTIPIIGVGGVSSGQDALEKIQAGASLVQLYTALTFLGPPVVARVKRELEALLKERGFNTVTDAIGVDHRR
Assay [5] can be described thus: Inhibitory activity (proliferation) against human peripheral blood mononuclear cells stimulated with Phytohemagglutininin-L (value range: 0.175-0.327). It counts as functional.

Chain of Dihydroorotate dehydrogenase (quinone), mitochondrial (Homo sapiens, UniProt Q02127) (Q02127 whole entry, the tested form may be a part): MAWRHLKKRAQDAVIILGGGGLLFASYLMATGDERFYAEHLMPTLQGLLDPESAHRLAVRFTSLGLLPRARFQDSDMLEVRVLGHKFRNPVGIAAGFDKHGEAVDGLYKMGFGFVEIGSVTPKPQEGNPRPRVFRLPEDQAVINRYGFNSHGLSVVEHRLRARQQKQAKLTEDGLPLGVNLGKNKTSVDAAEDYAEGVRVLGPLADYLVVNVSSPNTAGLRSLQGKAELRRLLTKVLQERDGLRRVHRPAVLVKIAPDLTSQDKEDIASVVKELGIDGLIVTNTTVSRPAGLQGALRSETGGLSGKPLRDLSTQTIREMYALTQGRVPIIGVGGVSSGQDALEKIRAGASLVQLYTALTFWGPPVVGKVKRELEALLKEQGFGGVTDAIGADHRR
Chain of Dihydroorotate dehydrogenase (quinone), mitochondrial (Rattus norvegicus, UniProt Q63707) (Q63707 whole entry): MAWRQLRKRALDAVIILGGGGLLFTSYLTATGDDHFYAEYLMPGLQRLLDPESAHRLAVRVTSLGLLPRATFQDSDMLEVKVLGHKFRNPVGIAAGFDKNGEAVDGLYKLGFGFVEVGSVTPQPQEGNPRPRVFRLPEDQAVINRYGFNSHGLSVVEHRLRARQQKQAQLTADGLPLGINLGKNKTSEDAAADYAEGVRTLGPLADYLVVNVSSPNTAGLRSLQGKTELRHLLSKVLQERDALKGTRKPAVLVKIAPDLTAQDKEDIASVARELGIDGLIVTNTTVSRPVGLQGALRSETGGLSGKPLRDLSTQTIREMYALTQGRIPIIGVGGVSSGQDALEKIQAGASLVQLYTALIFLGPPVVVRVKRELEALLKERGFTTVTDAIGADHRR

In general, IC50 refers to the point on the concentration scale where inhibition reaches its midpoint. Consider `COc1cccc(-c2ccc(NC(=O)C3=C(C(=O)O)COC3)c(F)c2)c1`, for which the IC50 in assay [1] was found to be 0.36 µM. On the same count and under the same terms, the value for `COc1cccc(-c2ccc(NC(=O)C3=C(C(=O)O)CSC3)c(F)c2)c1` was 0.131 µM. Compound `C/C(O)=C(\C#N)C(=O)Nc1ccc(C(F)(F)F)cc1` [TERIFLUNOMIDE] yielded an IC50 in assay [2] of 108 µM. In the case of `O=C(O)C1=C(C(=O)Nc2c(F)cc(-c3cccc(OC(F)(F)F)c3)cc2F)CSC1`, in assay [1], the IC50 is 0.015 µM. As to `O=C(O)C1=C(C(=O)Nc2ccc(OCc3c(F)cccc3Cl)c(Cl)c2)COC1`, the IC50 in assay [3] stood at 1.2 µM; in assay [4], 1.8 µM; in assay [1], 0.041 µM; in assay [2] it was 1 µM.

Turning to `O=C(O)C1=C(C(=O)Nc2c(F)cc(-c3cccc(OC(F)(F)F)c3)cc2F)CCC1`, the figures for the IC50 in assay [3], in assay [4] and in assay [2] were 0.504 µM, 2 µM and 15 µM, respectively. Consider `COc1cccc(-c2ccc(NC(=O)C3=C(C(=O)O)C(O)CC3)c(F)c2)c1` (configuration not stated), for which the IC50 in assay [1] amounted to 0.68 µM. For `O=C(O)C1=C(C(=O)Nc2ccc(-c3ccccc3)cc2)CCC1`, the midpoint of inhibition in assay [3], the IC50, lay at 1.5 µM. Regarding `O=C(O)C1=C(C(=O)Nc2c(F)c(F)c(-c3cccc(OC(F)(F)F)c3)c(F)c2F)CCC1`, the IC50 came to 0.078 µM in assay [3], 0.422 µM in assay [4] and 0.327 µM in assay [5]. Take `O=C(O)C1=C(C(=O)Nc2ccc(-c3ccccc3)cc2)CS(=O)(=O)C1`: the IC50 in assay [1] is 3.8 µM. Consider `O=C(O)C1=C(C(=O)Nc2c(F)c(F)c(-c3cccc(OC(F)(F)F)c3)c(F)c2F)COC1`, for which the IC50 in assay [1] was determined as 0.058 µM. Consider `O=C(O)C1=C(C(=O)Nc2ccc(OCc3ccccc3)cc2)CCC1`, for which the IC50 in assay [1] came to 2 µM. For `O=C(O)C1=C(C(=O)Nc2ccc(OCc3c(F)cccc3Cl)c(Cl)c2)CCC1`, the IC50 in assay [1] was determined as 0.011 µM.

Turning to `O=C(O)C1=C(C(=O)Nc2c(F)c(F)c(-c3cccc(OC(F)(F)F)c3)c(F)c2F)CSC1`, in assay [1], the IC50 amounted to 0.004 µM. On the same count and under the same terms, the value for `O=C(O)C1=C(C(=O)Nc2c(F)cc(-c3cccc(OC(F)(F)F)c3)cc2F)COC1` was 0.205 µM; that for `O=C(O)C1=C(C(=O)Nc2cc(Br)c(OCc3ccccc3)c(Br)c2)CCC1` was 0.127 µM. For `O=C(O)C1=C(C(=O)Nc2cc(Br)c(OCc3ccccc3)c(Br)c2)CSC1`, the IC50 in assay [1] came out at 0.173 µM.

As for `COc1cccc(-c2ccc(NC(=O)C3=C(C(=O)O)CCC3O)c(F)c2)c1` (configuration not stated), the IC50 in assay [1] was found to be 1.46 µM.

`O=C(O)C1=C(C(=O)Nc2ccc(-c3ccccc3)cc2)CSC1`: in assay [1], the IC50 was found to be 0.667 µM. In assay [2], `COc1cccc(-c2ccc(NC(=O)C3=C(C(=O)O)CCC3)c(F)c2)c1` [VIDOFLUDIMUS] registered an IC50 of 13 µM.
